Measurements taken from the CheMixHub viscosity set.

Assay: xn = mol fraction of the nth substance listed
Settings: 101 kPa

CCCCCCCCCCO + CCO
viscosity [mPa·s]
Settings	298.15 K	308.15 K	318.15 K
x2 = 0.05	10.42	7.3	4.847
x2 = 0.1	9.841	7.003	4.436
x2 = 0.15	9.249	6.644	4.102
x2 = 0.2	8.648	6.24	3.83
x2 = 0.25	8.044	5.809	3.604
x2 = 0.3	7.442	5.364	3.409
x2 = 0.35	6.845	4.919	3.236
x2 = 0.4	6.259	4.484	3.073
x2 = 0.45	5.687	4.065	2.912
x2 = 0.5	5.133	3.671	2.747
x2 = 0.55	4.6	3.304	2.575
x2 = 0.6	4.09	2.967	2.391
x2 = 0.65	3.606	2.659	2.195
x2 = 0.7	3.15	2.378	1.989
x2 = 0.75	2.723	2.119	1.775
x2 = 0.8	2.326	1.876	1.558
x2 = 0.85	1.961	1.641	1.344
x2 = 0.9	1.627	1.402	1.141
x2 = 0.95	1.325	1.146	0.9601
